Values quoted from earlier work, collected in US7713922B2, “Perfume compositions” (Quest International Services B.V., priority 2005, dated 2010).
Counter-ions that a name gives are not always drawn.

Conditions: at 25° C.

Compound | VP Class (vapour pressure class)
COC(Cc1ccccc1)OC | III (vp at least 100 micron Hg at 25° C.)
2,4-DIMETHYL-6-PHENYLDIHYDROPYRAN | I (vp greater than 3 micron Hg but less than 30 micron Hg at 25° C.)
COCCc1ccccc1 [2-PHENYLETHYL METHYL ETHER] | III (vp at least 100 micron Hg at 25° C.)
OCCCc1ccccc1 [3-PHENYLPROPYL ALCOHOL] | I (vp greater than 3 micron Hg but less than 30 micron Hg at 25° C.)
CC(=O)c1ccccc1 [ACETOPHENONE] | III (vp at least 100 micron Hg at 25° C.)
C=CCOC(=O)COc1ccccc1 [ALLYL PHENOXYACETATE] | I (vp greater than 3 micron Hg but less than 30 micron Hg at 25° C.)
CCCCCOC(=O)c1ccccc1O [AMYL SALICYLATE] | I (vp greater than 3 micron Hg but less than 30 micron Hg at 25° C.)
CC=Cc1ccc(OC)cc1 [ANETHOLE] | II (vp greater than 30 micron Hg but less than 100 micron at 25° C.)
COc1ccc(C=O)cc1 [ANISIC ALDEHYDE] | II (vp greater than 30 micron Hg but less than 100 micron at 25° C.)
CC(C)CCOCCc1ccccc1 [ANTHER, 2-PHENYLETHYL ISOAMYL ETHER] | II (vp greater than 30 micron Hg but less than 100 micron at 25° C.)
CC(C=O)Cc1ccc2c(c1)OCO2 (stereo not shown) [AQUANAL] | I (vp greater than 3 micron Hg but less than 30 micron Hg at 25° C.)
CC(=O)OCc1ccccc1 [BENZYL ACETATE] | III (vp at least 100 micron Hg at 25° C.)
CC(=O)CCc1ccccc1 [BENZYL ACETONE] | II (vp greater than 30 micron Hg but less than 100 micron at 25° C.)
C/C=C(\C)C(=O)OCc1ccccc1 [BENZYL TIGLATE, PHENYLMETHYL (2E)-2-METHYLBUT-2-ENOATE] | I (vp greater than 3 micron Hg but less than 30 micron Hg at 25° C.)
CC(C)(C)c1ccc(CCC=O)cc1 [BOURGEONAL, 3-(4-TERT.BUTYLPHENYL)PROPANAL] | I (vp greater than 3 micron Hg but less than 30 micron Hg at 25° C.)
COc1ccc(CC(C)C=O)cc1 (stereo not shown) [CANTHOXAL, 2-METHYL-3-(4-METHOXYPHENYL)PROPANAL] | I (vp greater than 3 micron Hg but less than 30 micron Hg at 25° C.)
OC/C=C/c1ccccc1 [CINNAMIC ALCOHOL] | I (vp greater than 3 micron Hg but less than 30 micron Hg at 25° C.)
CC(C=O)Cc1ccc(C(C)C)cc1 (stereo not shown) [CYCLAMEN ALDEHYDE, 2-METHYL-3-(4′-ISO-PROPYLPHENYL)PROPANAL] | I (vp greater than 3 micron Hg but less than 30 micron Hg at 25° C.)
c1ccc(Oc2ccccc2)cc1 [DIPHENYL OXIDE] | I (vp greater than 3 micron Hg but less than 30 micron Hg at 25° C.)
CCOC(C)OCCc1ccccc1 (stereo not shown) [EFETAAL, (2-{[1-(ETHYLOXY)ETHYL]OXY}ETHYL)BENZENE] | II (vp greater than 30 micron Hg but less than 100 micron at 25° C.)
CCOC(=O)c1ccccc1 [ETHYL BENZOATE] | III (vp at least 100 micron Hg at 25° C.)
C=CCc1ccc(O)c(OC)c1 [EUGENOL] | I (vp greater than 3 micron Hg but less than 30 micron Hg at 25° C.)
CCc1ccc(CC(C)(C)C=O)cc1 [FLORALOZONE, 2,2-DIMETHYL-3-(PARA-ETHYL PHENYL)PROPANAL] | I (vp greater than 3 micron Hg but less than 30 micron Hg at 25° C.)

Compound | VP Class (vapour pressure class)
CC(C)c1cccc(C(C)CC=O)c1 (stereo not shown) [FLORHYDRAL] | I (vp greater than 3 micron Hg but less than 30 micron Hg at 25° C.)
CC(C)CCOC(=O)c1ccccc1O [ISOAMYL SALICYLATE] | I (vp greater than 3 micron Hg but less than 30 micron Hg at 25° C.)
CC(C)COC(=O)c1ccccc1O [ISOBUTYL SALICYLATE] | I (vp greater than 3 micron Hg but less than 30 micron Hg at 25° C.)
CC=Cc1ccc(O)c(OC)c1 [ISOEUGENOL] | II (vp greater than 30 micron Hg but less than 100 micron at 25° C.)
CC(C)(C)c1ccc(CC#N)cc1 [MARENIL, 4-TERT-BUTYLPHENYLACETONITRILE] | I (vp greater than 3 micron Hg but less than 30 micron Hg at 25° C.)
CC(CC=O)CCc1ccccc1 (stereo not shown) [MEFRANAL, 3-METHYL-5-PHENYLPENTANAL] | I (vp greater than 3 micron Hg but less than 30 micron Hg at 25° C.)
CC(CCO)CCc1ccccc1 (stereo not shown) [MEFROSOL, 3-METHYL-5-PHENYLPENTANOL] | I (vp greater than 3 micron Hg but less than 30 micron Hg at 25° C.)
COC(=O)c1ccccc1N [METHYL ANTHRANILATE] | I (vp greater than 3 micron Hg but less than 30 micron Hg at 25° C.)
COC(=O)c1ccccc1 [METHYL BENZOATE] | III (vp at least 100 micron Hg at 25° C.)
C=CCc1ccc(OC)cc1 [METHYL CHAVICOL, 4-METHOXY-1-(2-PROPENYL)-BENZENE] | III (vp at least 100 micron Hg at 25° C.)
COC(=O)C=Cc1ccccc1 [METHYL CINNAMATE] | I (vp greater than 3 micron Hg but less than 30 micron Hg at 25° C.)
C=CCc1ccc(OC)c(OC)c1 [METHYL EUGENOL] | I (vp greater than 3 micron Hg but less than 30 micron Hg at 25° C.)
COC(=O)Cc1ccccc1 [METHYL PHENYLACETATE] | III (vp at least 100 micron Hg at 25° C.)
COC(=O)c1ccccc1O [METHYL SALICYLATE] | III (vp at least 100 micron Hg at 25° C.)
CC(C)OCCc1ccccc1 [PETIOLE, 2-PHENYLETHYL ISOPROPYL ETHER] | III (vp at least 100 micron Hg at 25° C.)
CC(C)C(=O)OCCOc1ccccc1 [PHENOXYETHYL ISOBUTYRATE] | I (vp greater than 3 micron Hg but less than 30 micron Hg at 25° C.)
CC(=O)OCCc1ccccc1 [PHENYLETHYL ACETATE] | II (vp greater than 30 micron Hg but less than 100 micron at 25° C.)
O=COCCc1ccccc1 [PHENYLETHYL FORMATE] | II (vp greater than 30 micron Hg but less than 100 micron at 25° C.)
CC1CC(C)(c2ccccc2)CO1 (stereo not shown) [RHUBAFURAN] | II (vp greater than 30 micron Hg but less than 100 micron at 25° C.)
CC(=O)OC(C)c1ccccc1 (stereo not shown) [STYRALLYL ACETATE] | III (vp at least 100 micron Hg at 25° C.)
COc1ccc(C)cc1 [para-CRESYL METHYL ETHER] | III (vp at least 100 micron Hg at 25° C.)
COc1ccc(C(C)=O)cc1 [para-METHOXYACETOPHENONE] | II (vp greater than 30 micron Hg but less than 100 micron at 25° C.)
CC(=O)c1ccc(C)cc1 [para-METHYLACETOPHENONE] | III (vp at least 100 micron Hg at 25° C.)
